# Data taken from patent US20160102074A1, “SUBSTITUTED AMIDE COMPOUNDS” (PFIZER INC., priority 2014, published 2016).
# Tests used:
# [1] = tested on: human PCSK9; test: PCSK9 AlphaLISA assay, PCSK9 lowering in WT7 cells; conditions: WT7 cells (Huh7 stably over-expressing human PCSK9), secreted PCSK9 by AlphaLISA, overnight incubation (16-24 h), top concentration 20 μM; read-out: Cell Based PCSK9 IC50
# Description: PCSK9 Lowering in WT7 Cells
# An in-vitro AlphaLISA assay (Perkin Elmer) was developed in order to quantitate the level of PCSK9 secreted into the cell culture media following compound treatment. To detect and measure PCSK9 protein a mouse monoclonal anti-human PCSK9 antibody was coupled to AlphaLISA acceptor beads by an external vendor (Perkin Elmer) and a second rabbit monoclonal anti-human PCSK9 antibody with an epitope distinct from that of the acceptor beads was biotinylated using the EZ link NHS-LC-LC-Biotin kit (Life Technologies #21338). Streptavidin coated-donor beads (Perkin Elmer) are also included in the assay mixture which then binds the biotinylated anti-PCSK9 antibody and in the presence of PCSK9 this donor complex and acceptor beads are brought into close proximity. Upon excitation of the donor beads at 680 nm singlet oxygen molecules are released that trigger an energy transfer cascade within the acceptor beads resolving as a single peak of light emitted at 615 nm. The ability of compound to modulate PCSK9 protein levels in conditioned media by AlphaLISA was assessed in the human hepatocellular carcinoma cell line Huh7, stably over-expressing human PCSK9. This cell line, termed WT7, was established by transfecting Huh7 cells with an in-house modified pcDNA 3.1 (+) Zeo expression vector (Life Technologies) containing the full-length human PCSK9 sequence (NCBI reference identifier, NM_174936.3, where coding sequence start annotated at position 363) and a c-terminal V5 and 6×-His tag. Following plasmid transfection the stable WT7 clone was identified and maintained under Zeocin selection. Compound screening was performed in 384-well plates where WT7 cells were plated at a density of 7500 cells per well in 20 μL of tissue culture media containing compound in an eleven point, 0.5 log dilution format at a high treatment concentration of 20 μM in a final volume of 0.5% DMSO. In additional to these test compound conditions each screening plate also included wells that contained 20 μM puromycin as a positive assay control defined as high percent effect, HPE, as well as wells containing media in 0.5% DMSO as a negative treatment control defined as zero percent effect, ZPE. After overnight compound incubation (16-24 h) the tissue culture media was collected and an aliquot from each sample was transferred to individual wells of a 384-well white Optiplate (Perkin Elmer). The coupled antibodies and donor beads were added to the assay plates in a buffer composed of 30 mM Tris pH 7.4, 0.02% Tween-20 and 0.02% Casein. Anti-PCSK9 acceptor beads (final concentration of 10 μg/mL) and anti-PCSK9 biotinylated antibody (final concentration of 3 nM) were added and incubated for 30 minutes at room temperature followed by the addition of the streptavidin donor beads (final concentration 40 μg/mL) for an additional 60 minutes. Additionally a standard curve was generated where AlphaLISA reagents were incubated in wells spiked with recombinant human PCSK9 diluted in tissue culture media from 5000 ng/mL to 0.6 ng/mL. Following incubation with AlphaLISA reagents plates were read on an EnVision (Perkin Elmer) plate reader at an excitation wavelength of […] and emission/detection wavelength of […]. To determine compound IC50 the data for HPEand ZPEcontrol wells were first analyzed and the mean, standard deviation and Z prime calculated for each plate. The test compound data were converted into percent effect, using the ZPE and HPE controls as 0% and 100% activity, respectively. The equation used for converting each well reading into percent effect was:
# IC50 was then calculated and reported as the midpoint in the percent effect curve in molar units and the values are reported under the Cell Based PCSK9 IC50 (μM) column header within Table 2 Biological Data. […]
# [2] = tested on: human PCSK9; test: Cell Free PCSK9 Assay (PCSK9-luciferase mRNA translation in HeLa lysate); type: biochemical; conditions: PCSK9-luciferase RNA, 30° C. for 45 minutes, top concentration 100 μM
# Procedure: As defined herein inhibition of translation of PCSK9 mRNA to PCSK9 protein is determined by the “Cell Free PCSK9 Assay” provided herein in the specification. This “Cell Free PCSK9 Assay” is specific to the production of PCSK9 protein from PCSK9 mRNA and therefore detects inhibitors of this translational process rather than other mechanisms by which PCSK9 protein may be reduced.
# In order to eliminate the permeability barrier inherent to the WT7 cell-based assays a cell-free system was also established to assess compound activitiy. A sequence containing the full length human PCSK9 (NCBI reference identifier, NM_174936.3, where coding sequence start annotated at position 363) along with 84 additional 3′ nucleotides, comprising a V5 tag and polylinker followed by an in frame modified firefly luciferase reporter (corresponding to nucleotide positions 283-1929 of pGL3, GenBank reference identifier JN542721.1) was cloned into the pT7CFE1 expression vector (ThermoScientific). The construct was then in-vitro transcribed using the MEGAscript T7 Kit (Life Technologies) and RNA subsequently purified incorporating the MEGAclear Kit (Life Technologies) according to manufacturer's protocols. HeLa cell lysates were prepared following the protocols described by Mikami (reference is Cell-Free Protein Synthesis Systems with Extracts from Cultured Human Cells, S. Mikami, T. Kobayashi and H. Imataka; from Methods in Molecular Biology, vol. 607, pages 43-52, Y. Endo et al. (eds.), Humana Press, 2010) with the following modifications. Cells were grown in a 20 L volume of CD293 medium (Gibco 11765-054) with Glutamax increased to 4 mM, penicillin at 100 U/mL and other additions as previously described by Mikami. Growth was in a 50 L wavebag at a rocker speed of 25 rpm and angle 6.1 with 5% CO2 and 0.2 LPM flow rate with cells harvested at a density of 2-2.5e6/mL. Lysates additionally contained 1 tablet of Roche cOmplete-EDTA protease inhibitors per 50 mL with tris(2-carboxyethyl)phosphine (Biovectra) substituted for dithiothreitol, and were clarified by an additional final centrifugation at 10,000 rpm in a Sorvall SS34 rotor at 4° C. for 10 minutes. Compound screening was performed in 384-well plates in an eleven point, 0.5 log dilution format at a top test compound concentration of 100 μM in a final volume of 0.5% DMSO. In additional to these test compound conditions each screening plate also included wells that contained 100 μM of compound example 16 (as depicted in WO2014170786; N-(3-chloropyridin-2-yl)-N-[(3R)-piperidin-3-yl]-4-(3H-[1,2,3]triazolo[4,5-b]pyridin-3-yl)benzamide) as a positive assay control defined as high percent effect, HPE, as well as wells containing media in 0.5% DMSO as a negative treatment control defined as zero percent effect, ZPE. Compounds were incubated at 30° C. for 45 minutes in a solution containing 0.1 μg of purified, in-vitro transcribed RNA together with the cell-free reaction mixture (consisting of 1.6 mM Mg and 112 mM K salts, 4.6 mM tris(2-carboxyethyl)phosphine (Biovectra), 5.0 μL HeLa lysate, 0.2 μL RNAsin (Promega) and 1.0 μL energy mix (containing 1.25 mM ATP (Sigma), 0.12 mM GTP (Sigma), 20 mM creatine phosphate (Santa Cruz), 60 μg/mL creatine phosphokinase (Sigma), 90 μg/mL tRNA (Sigma) and the 20 amino acids (Life Technologies) at final concentrations described by Mikami) and brought up in water to a final volume of 10 μL in water. Upon assay completion 1 μL from each reaction solution was removed and transferred to a second 384-well Optiplate (Perkin Elmer) containing 24 μL of SteadyGlo (Promega) and signal intensity was measured on the Envision (Perkin Elmer) using the enhanced luminescence protocol. To determine compound IC50 the data for HPE and ZPE control wells were first analyzed and the mean, standard deviation and Z prime calculated for each plate. The test compound data were converted into percent effect, using the ZPE and HPE controls as 0% and 100% activity, respectively, applying Equation 1 above. […]
IC50 [1] [µM],IC50 [2] [µM],Structure (SMILES)
> 20,5.8,"Cc1cccnc1N(C(=O)c1ccc(-c2cnn(C)c2-c2nn[nH]n2)cn1)[C@@H]1CCCNC1 [Example 1, N-(3-methylpyridin-2-yl)-5-[1-methyl-5-(2H-tetrazol-5-yl)-1H-pyrazol-4-yl]-N-[(3R)-piperidin-3-yl]pyridine-2-carboxamide]"
> 20,10.5,"Cn1ncc(-c2ccc(C(=O)N(c3ncccc3Cl)[C@@H]3CCCNC3)nc2)c1-c1nn[nH]n1 [Example 2, N-(3-chloropyridin-2-yl)-5-[1-methyl-5-(2H-tetrazol-5-yl)-1H-pyrazol-4-yl]-N-[(3R)-piperidin-3-yl]pyridine-2-carboxamide]"
> 20,15.3,"Cc1cccnc1N(C(=O)c1ccc(-c2cnn(C)c2-c2nn[nH]n2)c(F)c1)[C@@H]1CCCNC1 [Example 4, N-(3-methylpyridin-2-yl)-3-fluoro-4-[1-methyl-5-(2H-tetrazol-5-yl)-1H-pyrazol-4-yl]-N-[(3R)-piperidin-3-yl]benzamide]"
17.3,15.4,"CCOC(=O)O[C@H](C)n1nnnc1-c1c(-c2ccc(C(=O)N(c3ncccc3Cl)[C@@H]3CCCNC3)cc2)cnn1C [Example 12, ethyl (R)-1-{5-[1-methyl-4-(4-{(3-chloropyridin-2-yl)[(3R)-piperidin-3-yl]carbamoyl}phenyl)-1H-pyrazol-5-yl]-1H-tetrazol-1-yl}ethyl carbonate]"
